Assay results as given in the supplement of paper PMC10307832.

Key:
Assay in all cases: relative viability (nuclei count vs DMSO), 5 days (fraction); higher = more cells survive
BI-D1870 + Decitabine = compound: CC(C)CCN1c2nc(Nc3cc(F)c(O)c(F)c3)ncc2N(C)C(=O)C1C [BI-D1870] + Nc1ncn([C@H]2C[C@H](O)[C@@H](CO)O2)c(=O)n1 [Decitabine] (partner 2 µM)
Outline: (§1)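 Five library-drug doses in √10 steps were combined with a fixed anchor-drug dose, or a single drug was given alone, by pin tool to lung cancer cell lines in 1536-well plates the day after seeding. Nuclei were stained and counted after 5 days. Relative viability is the nuclei count in treated wells over that in vehicle wells, taken as the median of duplicate plates.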

BI-D1870 + Phenformin = compound: CC(C)CCN1c2nc(Nc3cc(F)c(O)c(F)c3)ncc2N(C)C(=O)C1C [BI-D1870] + N=C(N)NC(=N)NCCc1ccccc1 [Phenformin] (partner 250 µM)
Outline: as §1

Zebularine + Navitoclax = compound: O=c1ncccn1[C@@H]1O[C@H](CO)[C@@H](O)[C@H]1O [Zebularine] + CC1(C)CCC(c2ccc(Cl)cc2)=C(CN2CCN(c3ccc(C(=O)NS(=O)(=O)c4ccc(N[C@H](CCN5CCOCC5)CSc5ccccc5)c(S(=O)(=O)C(F)(F)F)c4)cc3)CC2)C1 [Navitoclax] (partner 0.5 µM)
Outline: as §1

BI-D1870 + Trametinib = compound: CC(C)CCN1c2nc(Nc3cc(F)c(O)c(F)c3)ncc2N(C)C(=O)C1C [BI-D1870] + CC(=O)Nc1cccc(-n2c(=O)n(C3CC3)c(=O)c3c(Nc4ccc(I)cc4F)n(C)c(=O)c(C)c32)c1 [Trametinib] (partner 0.02 µM)
Outline: as §1

For ABC-1, the relative viability (BI-D1870 + Decitabine; first compound 0.04 µM) was 0.885, the relative viability (BI-D1870 + Decitabine; first compound 0.1265 µM) was 1.05 and the relative viability (BI-D1870 + Decitabine; first compound 0.4 µM) was 1.15. The relative viability (BI-D1870 + Decitabine; first compound 1.265 µM) was 0.942, the relative viability (BI-D1870 + Decitabine; first compound 4 µM) was 1.03 and the relative viability (BI-D1870 + Phenformin; first compound 0.04 µM) was 0.215. The relative viability (BI-D1870 + Phenformin; first compound 0.1265 µM) was 0.211, the relative viability (BI-D1870 + Phenformin; first compound 0.4 µM) was 0.264 and the relative viability (BI-D1870 + Phenformin; first compound 1.265 µM) was 0.218. For the same cell line, the relative viability (BI-D1870 + Phenformin; first compound 4 µM) was 0.212.
Cell Line NCI-H1299 has a relative viability (Zebularine + Navitoclax; first compound 1 µM) of 1.05, a relative viability (Zebularine + Navitoclax; first compound 3.162 µM) of 1.07 and a relative viability (Zebularine + Navitoclax; first compound 10 µM) of 0.782. For the same cell line, the relative viability (Zebularine + Navitoclax; first compound 31.62 µM) was 1.06 and the relative viability (Zebularine + Navitoclax; first compound 100 µM) was 0.526.
EBC-1 showed a relative viability (Zebularine + Navitoclax; first compound 1 µM) of 0.398, a relative viability (Zebularine + Navitoclax; first compound 3.162 µM) of 0.353 and a relative viability (Zebularine + Navitoclax; first compound 10 µM) of 0.376. It also gave a relative viability (Zebularine + Navitoclax; first compound 31.62 µM) of 0.337 and a relative viability (Zebularine + Navitoclax; first compound 100 µM) of 0.37.
Work on NCI-H1648 yielded a relative viability (BI-D1870 + Decitabine; first compound 0.04 µM) of 0.463, a relative viability (BI-D1870 + Decitabine; first compound 0.1265 µM) of 0.505 and a relative viability (BI-D1870 + Decitabine; first compound 1.265 µM) of 0.527. The relative viability (BI-D1870 + Decitabine; first compound 4 µM) was 0.578, the relative viability (BI-D1870 + Trametinib; first compound 0.04 µM) was 0.445 and the relative viability (BI-D1870 + Trametinib; first compound 0.1265 µM) was 0.54. The relative viability (BI-D1870 + Trametinib; first compound 1.265 µM) was 0.552 and the relative viability (BI-D1870 + Trametinib; first compound 4 µM) was 0.49.
Work on NCI-H650 yielded a relative viability (BI-D1870 + Decitabine; first compound 0.04 µM) of 0.336, a relative viability (BI-D1870 + Decitabine; first compound 0.1265 µM) of 0.339 and a relative viability (BI-D1870 + Decitabine; first compound 0.4 µM) of 0.331. For the same cell line, the relative viability (BI-D1870 + Decitabine; first compound 1.265 µM) was 0.314, the relative viability (BI-D1870 + Decitabine; first compound 4 µM) was 0.286 and the relative viability (BI-D1870 + Phenformin; first compound 0.04 µM) was 0.444. The relative viability (BI-D1870 + Phenformin; first compound 0.1265 µM) was 0.446, the relative viability (BI-D1870 + Phenformin; first compound 0.4 µM) was 0.432 and the relative viability (BI-D1870 + Phenformin; first compound 1.265 µM) was 0.38. For the same cell line, the relative viability (BI-D1870 + Phenformin; first compound 4 µM) was 0.322, the relative viability (BI-D1870 + Trametinib; first compound 0.04 µM) was 0.995 and the relative viability (BI-D1870 + Trametinib; first compound 0.1265 µM) was 0.82. The relative viability (BI-D1870 + Trametinib; first compound 0.4 µM) was 0.862, the relative viability (BI-D1870 + Trametinib; first compound 1.265 µM) was 0.901 and the relative viability (BI-D1870 + Trametinib; first compound 4 µM) was 0.904.
For A549, the relative viability (BI-D1870 + Decitabine; first compound 0.04 µM) was 0.213, the relative viability (BI-D1870 + Decitabine; first compound 0.1265 µM) was 0.282 and the relative viability (BI-D1870 + Decitabine; first compound 0.4 µM) was 0.27. For the same cell line, the relative viability (BI-D1870 + Decitabine; first compound 1.265 µM) was 0.288, the relative viability (BI-D1870 + Decitabine; first compound 4 µM) was 0.236 and the relative viability (BI-D1870 + Phenformin; first compound 0.04 µM) was 0.211. It also gave a relative viability (BI-D1870 + Phenformin; first compound 0.1265 µM) of 0.174, a relative viability (BI-D1870 + Phenformin; first compound 0.4 µM) of 0.177 and a relative viability (BI-D1870 + Phenformin; first compound 1.265 µM) of 0.207. The relative viability (BI-D1870 + Phenformin; first compound 4 µM) was 0.165, the relative viability (Zebularine + Navitoclax; first compound 1 µM) was 1.24 and the relative viability (Zebularine + Navitoclax; first compound 3.162 µM) was 1.12. For the same cell line, the relative viability (Zebularine + Navitoclax; first compound 31.62 µM) was 0.913 and the relative viability (Zebularine + Navitoclax; first compound 100 µM) was 0.206.
Cell Line NCI-H358 has a relative viability (BI-D1870 + Decitabine; first compound 0.04 µM) of 0.201, a relative viability (BI-D1870 + Decitabine; first compound 0.1265 µM) of 0.195 and a relative viability (BI-D1870 + Decitabine; first compound 0.4 µM) of 0.202. For the same cell line, the relative viability (BI-D1870 + Decitabine; first compound 1.265 µM) was 0.21, the relative viability (BI-D1870 + Decitabine; first compound 4 µM) was 0.229 and the relative viability (BI-D1870 + Phenformin; first compound 0.04 µM) was 0.405. The relative viability (BI-D1870 + Phenformin; first compound 0.1265 µM) was 0.289, the relative viability (BI-D1870 + Phenformin; first compound 0.4 µM) was 0.343 and the relative viability (BI-D1870 + Phenformin; first compound 1.265 µM) was 0.326. The relative viability (BI-D1870 + Phenformin; first compound 4 µM) was 0.218, the relative viability (BI-D1870 + Trametinib; first compound 0.04 µM) was 0.147 and the relative viability (BI-D1870 + Trametinib; first compound 0.1265 µM) was 0.117. The relative viability (BI-D1870 + Trametinib; first compound 0.4 µM) was 0.136, the relative viability (BI-D1870 + Trametinib; first compound 1.265 µM) was 0.153 and the relative viability (BI-D1870 + Trametinib; first compound 4 µM) was 0.119.
For NCI-H1563, the relative viability (BI-D1870 + Phenformin; first compound 0.04 µM) was 0.669, the relative viability (BI-D1870 + Phenformin; first compound 0.1265 µM) was 0.651 and the relative viability (BI-D1870 + Phenformin; first compound 0.4 µM) was 0.643. It also gave a relative viability (BI-D1870 + Phenformin; first compound 1.265 µM) of 0.682 and a relative viability (BI-D1870 + Phenformin; first compound 4 µM) of 0.728.
With NCI-H522 the relative viability (BI-D1870 + Decitabine; first compound 0.04 µM) was 0.595, the relative viability (BI-D1870 + Decitabine; first compound 0.1265 µM) was 0.762 and the relative viability (BI-D1870 + Decitabine; first compound 0.4 µM) was 0.677. The relative viability (BI-D1870 + Decitabine; first compound 1.265 µM) was 0.647, the relative viability (BI-D1870 + Decitabine; first compound 4 µM) was 0.661 and the relative viability (BI-D1870 + Phenformin; first compound 0.04 µM) was 0.754. It also gave a relative viability (BI-D1870 + Phenformin; first compound 0.1265 µM) of 0.603, a relative viability (BI-D1870 + Phenformin; first compound 0.4 µM) of 0.677 and a relative viability (BI-D1870 + Phenformin; first compound 1.265 µM) of 0.763. It also gave a relative viability (BI-D1870 + Phenformin; first compound 4 µM) of 0.692, a relative viability (BI-D1870 + Trametinib; first compound 0.04 µM) of 0.69 and a relative viability (BI-D1870 + Trametinib; first compound 0.1265 µM) of 0.764. The relative viability (BI-D1870 + Trametinib; first compound 0.4 µM) was 0.722, the relative viability (BI-D1870 + Trametinib; first compound 1.265 µM) was 0.836 and the relative viability (BI-D1870 + Trametinib; first compound 4 µM) was 0.776.
For IA-LM, the relative viability (Zebularine + Navitoclax; first compound 1 µM) was 0.899, the relative viability (Zebularine + Navitoclax; first compound 3.162 µM) was 0.688 and the relative viability (Zebularine + Navitoclax; first compound 10 µM) was 0.506. It also gave a relative viability (Zebularine + Navitoclax; first compound 31.62 µM) of 0.805 and a relative viability (Zebularine + Navitoclax; first compound 100 µM) of 0.616.
In the case of NCI-H1703, the relative viability (Zebularine + Navitoclax; first compound 1 µM) is reported as 1.17, the relative viability (Zebularine + Navitoclax; first compound 3.162 µM) is reported as 0.915 and the relative viability (Zebularine + Navitoclax; first compound 10 µM) is reported as 0.859. For the same cell line, the relative viability (Zebularine + Navitoclax; first compound 31.62 µM) was 1.31 and the relative viability (Zebularine + Navitoclax; first compound 100 µM) was 0.813.
In the case of LCLC-103H, the relative viability (BI-D1870 + Decitabine; first compound 0.04 µM) is reported as 0.706, the relative viability (BI-D1870 + Decitabine; first compound 0.1265 µM) is reported as 0.588 and the relative viability (BI-D1870 + Decitabine; first compound 0.4 µM) is reported as 0.723. The relative viability (BI-D1870 + Decitabine; first compound 1.265 µM) was 0.804, the relative viability (BI-D1870 + Decitabine; first compound 4 µM) was 0.678 and the relative viability (BI-D1870 + Phenformin; first compound 0.04 µM) was 0.376. It also gave a relative viability (BI-D1870 + Phenformin; first compound 0.1265 µM) of 0.301, a relative viability (BI-D1870 + Phenformin; first compound 0.4 µM) of 0.316 and a relative viability (BI-D1870 + Phenformin; first compound 1.265 µM) of 0.36. It also gave a relative viability (BI-D1870 + Phenformin; first compound 4 µM) of 0.324, a relative viability (BI-D1870 + Trametinib; first compound 0.04 µM) of 0.692 and a relative viability (BI-D1870 + Trametinib; first compound 0.1265 µM) of 0.616. The relative viability (BI-D1870 + Trametinib; first compound 0.4 µM) was 0.653, the relative viability (BI-D1870 + Trametinib; first compound 1.265 µM) was 0.7 and the relative viability (BI-D1870 + Trametinib; first compound 4 µM) was 0.63.
In the case of SW 900, the relative viability (BI-D1870 + Decitabine; first compound 0.04 µM) is reported as 0.479, the relative viability (BI-D1870 + Decitabine; first compound 0.1265 µM) is reported as 0.47 and the relative viability (BI-D1870 + Decitabine; first compound 0.4 µM) is reported as 0.472. The relative viability (BI-D1870 + Decitabine; first compound 1.265 µM) was 0.534, the relative viability (BI-D1870 + Decitabine; first compound 4 µM) was 0.498 and the relative viability (BI-D1870 + Phenformin; first compound 0.04 µM) was 0.748. For the same cell line, the relative viability (BI-D1870 + Phenformin; first compound 0.1265 µM) was 0.452, the relative viability (BI-D1870 + Phenformin; first compound 0.4 µM) was 0.63 and the relative viability (BI-D1870 + Phenformin; first compound 1.265 µM) was 0.672. The relative viability (BI-D1870 + Phenformin; first compound 4 µM) was 0.618, the relative viability (BI-D1870 + Trametinib; first compound 0.04 µM) was 0.883 and the relative viability (BI-D1870 + Trametinib; first compound 0.1265 µM) was 0.83. The relative viability (BI-D1870 + Trametinib; first compound 0.4 µM) was 0.858, the relative viability (BI-D1870 + Trametinib; first compound 1.265 µM) was 0.762 and the relative viability (BI-D1870 + Trametinib; first compound 4 µM) was 0.984.
